According to patent US11572590B2, “Methods for evaluating tumor cell spheroids using 3D microfluidic cell culture device” (Dana-Farber Cancer Institute, Inc., priority 2017, dated 2023):
Where two headings read alike, the source gives them in different places.

How the values were obtained:
Assay in all cases: SelectScreen Kinase Profiling, single point inhibition and IC50 for off-target kinases
Assay type in all cases: biochemical
off-target kinases [1] = target: off-target kinases (Homo sapiens, UniProt O00238); conditions: BMPR1B (ALK6), LanthaScreen Binding
off-target kinases [2] = target: off-target kinases (Homo sapiens, UniProt O00443); conditions: PIK3C2A (PI3K-C2 alpha); Cmpd1 1000 μM; ATP Km app; Adapta
off-target kinases [3] = target: off-target kinases (Homo sapiens, UniProt P10721, D820E); conditions: KIT D820E, mutant y, LanthaScreen Binding
off-target kinases [4] = target: off-target kinases (Homo sapiens, UniProt P27448); conditions: MARK3, ATP Km app, ZLYTE
off-target kinases [5] = target: T1, off-target kinases (Homo sapiens, UniProt P36896); conditions: ACVR1B (ALK4); Cmpd1 1000 μM; ATP Km app; ZLYTE
T1 sequence (P36896 24-505): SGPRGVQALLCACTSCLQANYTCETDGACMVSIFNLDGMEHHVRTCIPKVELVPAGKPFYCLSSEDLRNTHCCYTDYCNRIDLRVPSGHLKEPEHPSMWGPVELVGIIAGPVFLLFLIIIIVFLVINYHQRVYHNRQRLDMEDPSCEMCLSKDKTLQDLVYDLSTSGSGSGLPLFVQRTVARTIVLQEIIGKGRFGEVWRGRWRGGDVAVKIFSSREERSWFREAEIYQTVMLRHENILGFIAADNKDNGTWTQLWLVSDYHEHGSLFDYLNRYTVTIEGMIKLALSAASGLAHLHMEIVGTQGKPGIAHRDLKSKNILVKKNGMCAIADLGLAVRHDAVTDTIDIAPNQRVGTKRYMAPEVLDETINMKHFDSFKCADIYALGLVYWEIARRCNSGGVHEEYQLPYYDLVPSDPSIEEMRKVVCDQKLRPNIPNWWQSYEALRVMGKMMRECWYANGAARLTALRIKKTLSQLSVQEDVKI

off-target kinases [6] = target: off-target kinases (Homo sapiens, UniProt Q00535)
off-target kinases [7] = target: off-target kinases (Homo sapiens, UniProt Q04759); conditions: PRKCQ (PKC theta); Cmpd1 1000 μM; ATP Km app; ZLYTE
off-target kinases [8] = target: T2, off-target kinases (Homo sapiens, UniProt Q04771); conditions: ACVR1 (ALK2), LanthaScreen Binding
T2 sequence (Q04771 21-509): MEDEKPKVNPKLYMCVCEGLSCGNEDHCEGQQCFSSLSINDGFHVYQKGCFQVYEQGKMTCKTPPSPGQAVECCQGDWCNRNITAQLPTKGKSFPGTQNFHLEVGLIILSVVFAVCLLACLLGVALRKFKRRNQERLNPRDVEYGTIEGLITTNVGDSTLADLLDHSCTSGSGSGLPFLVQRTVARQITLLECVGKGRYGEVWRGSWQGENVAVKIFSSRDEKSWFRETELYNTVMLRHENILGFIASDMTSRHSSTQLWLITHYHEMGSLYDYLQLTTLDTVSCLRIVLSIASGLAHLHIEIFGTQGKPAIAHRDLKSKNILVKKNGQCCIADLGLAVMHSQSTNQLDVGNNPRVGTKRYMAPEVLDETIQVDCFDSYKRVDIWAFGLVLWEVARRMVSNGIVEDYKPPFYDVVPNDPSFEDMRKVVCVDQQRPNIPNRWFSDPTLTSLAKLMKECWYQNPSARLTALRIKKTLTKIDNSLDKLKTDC

Chain of off-target kinases (Homo sapiens, UniProt P27448) (P27448 whole entry): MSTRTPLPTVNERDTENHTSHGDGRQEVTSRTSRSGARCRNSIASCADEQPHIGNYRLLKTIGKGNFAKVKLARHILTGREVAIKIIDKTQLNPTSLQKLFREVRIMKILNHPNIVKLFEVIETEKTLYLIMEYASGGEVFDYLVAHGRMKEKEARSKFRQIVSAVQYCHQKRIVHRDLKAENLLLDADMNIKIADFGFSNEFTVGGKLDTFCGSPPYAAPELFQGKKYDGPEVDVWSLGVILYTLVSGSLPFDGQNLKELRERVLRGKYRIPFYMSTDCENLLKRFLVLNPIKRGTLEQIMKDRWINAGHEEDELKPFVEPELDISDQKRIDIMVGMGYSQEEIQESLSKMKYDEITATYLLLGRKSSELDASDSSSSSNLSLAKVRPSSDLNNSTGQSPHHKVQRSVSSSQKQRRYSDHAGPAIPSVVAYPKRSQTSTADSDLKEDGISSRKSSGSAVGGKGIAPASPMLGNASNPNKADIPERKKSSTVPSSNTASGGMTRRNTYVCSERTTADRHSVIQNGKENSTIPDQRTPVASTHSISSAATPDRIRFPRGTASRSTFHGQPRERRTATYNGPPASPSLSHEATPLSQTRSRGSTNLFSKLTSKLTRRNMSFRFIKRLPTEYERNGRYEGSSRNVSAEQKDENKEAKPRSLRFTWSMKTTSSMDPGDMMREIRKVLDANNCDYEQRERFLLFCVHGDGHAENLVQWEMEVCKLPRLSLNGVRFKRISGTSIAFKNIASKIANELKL
Chain of off-target kinases (Homo sapiens, UniProt O00238) (O00238 14-502): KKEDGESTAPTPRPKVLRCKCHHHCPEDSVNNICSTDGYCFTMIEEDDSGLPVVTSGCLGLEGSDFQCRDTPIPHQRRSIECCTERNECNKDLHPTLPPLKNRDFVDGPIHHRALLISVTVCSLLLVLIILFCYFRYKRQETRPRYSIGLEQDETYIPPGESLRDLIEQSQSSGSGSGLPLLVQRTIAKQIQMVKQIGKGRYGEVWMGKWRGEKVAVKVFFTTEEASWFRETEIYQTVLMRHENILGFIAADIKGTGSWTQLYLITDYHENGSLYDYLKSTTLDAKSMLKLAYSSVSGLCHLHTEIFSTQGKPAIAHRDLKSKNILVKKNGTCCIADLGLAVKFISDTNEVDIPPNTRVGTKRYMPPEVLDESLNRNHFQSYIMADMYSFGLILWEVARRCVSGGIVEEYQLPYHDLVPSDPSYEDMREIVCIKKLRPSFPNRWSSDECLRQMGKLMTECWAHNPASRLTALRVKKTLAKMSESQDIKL
Chain of off-target kinases (Homo sapiens, UniProt P10721, D820E) (P10721 26-976 D820E): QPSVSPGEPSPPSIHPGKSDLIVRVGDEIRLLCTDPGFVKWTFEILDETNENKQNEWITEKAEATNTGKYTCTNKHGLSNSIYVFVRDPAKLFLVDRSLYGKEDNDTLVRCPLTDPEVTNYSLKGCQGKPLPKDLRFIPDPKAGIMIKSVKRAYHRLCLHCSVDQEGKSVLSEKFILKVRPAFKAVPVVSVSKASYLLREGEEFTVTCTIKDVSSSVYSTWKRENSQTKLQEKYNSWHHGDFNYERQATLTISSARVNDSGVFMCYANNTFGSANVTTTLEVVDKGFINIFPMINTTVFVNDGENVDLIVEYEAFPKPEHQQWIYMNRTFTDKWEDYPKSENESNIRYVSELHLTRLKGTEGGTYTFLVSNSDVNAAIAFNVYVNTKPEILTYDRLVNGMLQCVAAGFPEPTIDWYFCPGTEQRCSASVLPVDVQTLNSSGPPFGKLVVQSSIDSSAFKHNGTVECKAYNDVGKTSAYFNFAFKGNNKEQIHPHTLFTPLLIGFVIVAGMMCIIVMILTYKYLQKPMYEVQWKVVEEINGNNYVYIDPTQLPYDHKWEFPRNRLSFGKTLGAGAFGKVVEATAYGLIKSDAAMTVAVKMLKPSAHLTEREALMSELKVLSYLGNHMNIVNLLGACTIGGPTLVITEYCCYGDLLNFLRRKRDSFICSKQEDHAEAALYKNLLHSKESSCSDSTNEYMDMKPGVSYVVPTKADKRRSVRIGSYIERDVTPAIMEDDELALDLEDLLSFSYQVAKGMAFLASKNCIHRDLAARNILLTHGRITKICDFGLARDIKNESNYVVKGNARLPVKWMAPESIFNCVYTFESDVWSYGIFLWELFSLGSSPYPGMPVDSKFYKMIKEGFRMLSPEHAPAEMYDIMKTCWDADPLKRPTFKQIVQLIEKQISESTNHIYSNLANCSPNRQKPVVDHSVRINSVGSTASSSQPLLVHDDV
Chain of off-target kinases (Homo sapiens, UniProt O00443) (O00443 whole entry): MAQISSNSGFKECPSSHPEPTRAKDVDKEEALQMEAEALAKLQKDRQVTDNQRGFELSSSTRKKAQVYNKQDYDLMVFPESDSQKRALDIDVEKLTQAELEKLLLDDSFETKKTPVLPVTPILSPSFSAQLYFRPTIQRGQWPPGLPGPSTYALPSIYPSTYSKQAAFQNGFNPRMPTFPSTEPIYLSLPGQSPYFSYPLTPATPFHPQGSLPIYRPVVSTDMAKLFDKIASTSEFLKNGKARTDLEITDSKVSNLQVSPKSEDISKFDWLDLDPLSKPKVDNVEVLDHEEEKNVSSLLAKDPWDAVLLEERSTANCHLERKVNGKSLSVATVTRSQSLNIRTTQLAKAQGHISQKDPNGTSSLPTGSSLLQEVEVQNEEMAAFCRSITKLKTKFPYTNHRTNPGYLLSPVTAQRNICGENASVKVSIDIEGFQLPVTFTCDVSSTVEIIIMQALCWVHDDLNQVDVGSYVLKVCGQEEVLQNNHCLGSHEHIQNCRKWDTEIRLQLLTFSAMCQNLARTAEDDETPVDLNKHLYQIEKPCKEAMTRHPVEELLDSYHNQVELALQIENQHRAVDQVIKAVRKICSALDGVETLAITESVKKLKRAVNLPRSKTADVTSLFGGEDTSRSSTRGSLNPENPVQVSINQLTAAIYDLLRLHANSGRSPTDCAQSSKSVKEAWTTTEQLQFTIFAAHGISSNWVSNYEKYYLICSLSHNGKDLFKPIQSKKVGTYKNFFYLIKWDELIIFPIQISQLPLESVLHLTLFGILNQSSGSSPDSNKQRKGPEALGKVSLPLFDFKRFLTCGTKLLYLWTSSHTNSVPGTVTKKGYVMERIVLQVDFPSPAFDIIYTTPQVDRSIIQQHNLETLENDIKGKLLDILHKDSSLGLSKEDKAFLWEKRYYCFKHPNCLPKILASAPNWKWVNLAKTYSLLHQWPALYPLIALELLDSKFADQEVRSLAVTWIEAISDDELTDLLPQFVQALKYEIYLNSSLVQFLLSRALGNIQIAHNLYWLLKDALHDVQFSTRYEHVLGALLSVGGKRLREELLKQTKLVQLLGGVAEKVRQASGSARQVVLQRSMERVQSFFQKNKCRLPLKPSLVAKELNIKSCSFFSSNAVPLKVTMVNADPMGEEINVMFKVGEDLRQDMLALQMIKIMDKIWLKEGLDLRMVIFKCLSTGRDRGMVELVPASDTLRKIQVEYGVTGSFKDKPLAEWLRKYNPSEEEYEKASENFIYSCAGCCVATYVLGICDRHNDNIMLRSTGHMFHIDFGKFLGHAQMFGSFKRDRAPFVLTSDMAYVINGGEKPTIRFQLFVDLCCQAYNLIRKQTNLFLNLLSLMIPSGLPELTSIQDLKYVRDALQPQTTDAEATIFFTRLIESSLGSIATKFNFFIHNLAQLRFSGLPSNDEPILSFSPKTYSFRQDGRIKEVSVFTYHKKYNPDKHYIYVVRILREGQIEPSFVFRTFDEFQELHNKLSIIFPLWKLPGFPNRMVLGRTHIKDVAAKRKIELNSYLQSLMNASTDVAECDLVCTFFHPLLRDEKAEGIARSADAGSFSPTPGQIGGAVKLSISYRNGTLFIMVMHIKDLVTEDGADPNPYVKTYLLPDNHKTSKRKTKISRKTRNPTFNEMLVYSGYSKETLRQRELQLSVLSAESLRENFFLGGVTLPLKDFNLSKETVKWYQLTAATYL
Chain of off-target kinases (Homo sapiens, UniProt Q04759) (Q04759 whole entry): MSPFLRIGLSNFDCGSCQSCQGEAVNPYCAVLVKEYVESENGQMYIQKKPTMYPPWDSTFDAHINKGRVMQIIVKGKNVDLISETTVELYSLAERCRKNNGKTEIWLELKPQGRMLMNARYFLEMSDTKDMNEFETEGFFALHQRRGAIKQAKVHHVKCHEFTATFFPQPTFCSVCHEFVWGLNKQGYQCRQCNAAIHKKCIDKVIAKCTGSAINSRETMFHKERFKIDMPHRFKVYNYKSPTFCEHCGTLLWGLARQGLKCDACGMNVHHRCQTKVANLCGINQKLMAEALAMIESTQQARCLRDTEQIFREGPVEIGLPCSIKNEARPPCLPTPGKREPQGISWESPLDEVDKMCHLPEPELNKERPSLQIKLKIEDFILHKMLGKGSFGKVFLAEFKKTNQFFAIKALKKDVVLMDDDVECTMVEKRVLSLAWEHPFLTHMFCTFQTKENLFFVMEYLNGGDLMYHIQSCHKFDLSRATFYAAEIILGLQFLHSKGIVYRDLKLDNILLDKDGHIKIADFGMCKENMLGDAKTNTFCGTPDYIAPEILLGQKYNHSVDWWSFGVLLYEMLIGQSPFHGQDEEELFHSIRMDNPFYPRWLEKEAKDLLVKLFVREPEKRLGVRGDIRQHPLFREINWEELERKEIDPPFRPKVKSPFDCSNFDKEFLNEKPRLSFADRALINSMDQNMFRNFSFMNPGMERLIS
Chain of off-target kinases (Homo sapiens, UniProt Q00535) (Q00535 whole entry): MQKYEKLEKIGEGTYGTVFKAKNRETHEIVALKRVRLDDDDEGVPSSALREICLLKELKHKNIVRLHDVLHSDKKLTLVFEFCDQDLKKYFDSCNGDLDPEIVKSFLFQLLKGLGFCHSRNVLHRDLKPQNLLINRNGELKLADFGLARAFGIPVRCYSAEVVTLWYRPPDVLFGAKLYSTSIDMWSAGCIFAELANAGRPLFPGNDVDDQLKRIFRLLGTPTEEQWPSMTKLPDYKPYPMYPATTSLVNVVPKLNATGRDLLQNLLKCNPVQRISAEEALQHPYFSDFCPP

Work on `N#Cc1cc(-c2ncnc(Nc3ccc(N4CCN(C5COC5)CC4)cc3)n2)ccc1OC1CCOCC1` [Compound 1, 5-(4-((4-(4-(oxetan-3-yl)piperazin-1-yl)phenyl)amino)-1,3,5-triazin-2-yl)-2-((tetrahydro-2H-pyran-4-yl)oxy)benzonitrile] yielded an inhibition (off-target kinases [1]; read-out: % Inhibition 1) of 56%, an inhibition (off-target kinases [1]; read-out: % Inhibition 2) of 60% and an inhibition (off-target kinases [1]; read-out: % Inhibition Avg) of 58%. For the same molecule, the “% Inhibition 1” value (off-target kinases [2]) was −7%, the “% Inhibition 2” value (off-target kinases [2]) was −9% and the “% Inhibition Avg” value (off-target kinases [2]) was −8%. For the same molecule, the inhibition (off-target kinases [3]; read-out: % Inhibition 1) was 18%, the inhibition (off-target kinases [3]; read-out: % Inhibition 2) was 19% and the inhibition (off-target kinases [3]; read-out: % Inhibition Avg) was 18%. For the same molecule, the inhibition (off-target kinases [4]; read-out: % Inhibition 1) was 98%, the inhibition (off-target kinases [4]; read-out: % Inhibition 2) was 94% and the inhibition (off-target kinases [4]; read-out: % Inhibition Avg) was 96%. For the same molecule, the “% Inhibition 1” value (off-target kinases [5]) was −10%, the “% Inhibition 2” value (off-target kinases [5]) was −4% and the “% Inhibition Avg” value (off-target kinases [5]) was −7%. It also gave an inhibition (off-target kinases [6]; CDK5 (Inactive), LanthaScreen Binding, read-out: % Inhibition 1) of 1%, an inhibition (off-target kinases [6]; CDK5 (Inactive), LanthaScreen Binding, read-out: % Inhibition 2) of -2% and an inhibition (off-target kinases [6]; CDK5/p25, ZLYTE, ATP Km app, read-out: % Inhibition 1) of 3%. It also gave an inhibition (off-target kinases [6]; CDK5/p25, ZLYTE, ATP Km app, read-out: % Inhibition 2) of 1%, an inhibition (off-target kinases [6]; CDK5/p25, ZLYTE, ATP Km app, read-out: % Inhibition Avg) of 2% and an inhibition (off-target kinases [6]; CDK5/p35, ZLYTE, ATP Km app, read-out: % Inhibition 1) of 7%. For the same molecule, the inhibition (off-target kinases [6]; CDK5/p35, ZLYTE, ATP Km app, read-out: % Inhibition 2) was 2%, the inhibition (off-target kinases [6]; CDK5/p35, ZLYTE, ATP Km app, read-out: % Inhibition Avg) was 5% and the inhibition (off-target kinases [6]; read-out: % Inhibition Avg) was -1%. The “% Inhibition 1” value (off-target kinases [7]) was −6%, the “% Inhibition 2” value (off-target kinases [7]) was −17% and the “% Inhibition Avg” value (off-target kinases [7]) was −12%. For the same molecule, the inhibition (off-target kinases [8]; read-out: % Inhibition 1) was 85%, the inhibition (off-target kinases [8]; read-out: % Inhibition 2) was 84% and the inhibition (off-target kinases [8]; read-out: % Inhibition Avg) was 84%.
